Read-outs that look alike come from different tables or passages of the source.
Key:
[1] = system: HT-29 cells (human colon carcinoma cell line); test: MTT anti-proliferation assay on HT-29 cells; format: cell-based; conditions: 384 well plates, 5 days, read-out: IC50 HT29 384
Excerpt: MTT (3-(4,5-dimethylthiazol-2-yl)-2,5-diphenyl tetrazolium bromide) is widely used for the quantitative determination of cytotoxic effects or in vitro chemosensitivity of tumor cells. The assay is based on the cleavage of the yellow tetrazolium salt (MTT) to purple formazan crystals by metabolic active cells. For details, see Rubinstein, L. V., et al., J. Natl. Cancer Inst. 82 (1990) 1113.
We proceeded as follows: HT-29 cells (human colon carcinoma cell line) were cultivated in RPMI 1640, 2.5% FCS, 2 mM glutamine, 100 u/ml penicillin, 100 ug/ml streptomycin. For the assay the cells were seeded in 384 well plates, 900 cells per well, in the same medium. At the next day, the compounds (dissolved 10 mM in DMSO) were added in various concentrations ranging from 30 uM to 1.5 nM. After 5 days, the MTT assay was done mainly according to the instructions of the manufacturer (Cell proliferation kit I, MTT, from Roche Molecular Biochemicals). In brief: MTT labeling reagent was added to a final concentration of 0.5 mg/ml, added and incubated for 4 hrs at 37° C., 5% CO2. During this incubation time purple formazan crystals are formed. After addition of the solubilization solution (20% SDS in 0.02 M HCl) the plates were incubated overnight at 37° C., 5% CO2. After careful mixing, the plates were measured in Victor 2 (scanning multiwell spectrophotometer, Wallac) at 550 nm.
A decrease in number of living cells results in a decrease in the total metabolic activity in the sample. The decrease directly correlates to the amount of purple color resulting from the solubilization of the purple formazan crystals. Determination of IC50 was done using XL-fit.

recombinant HDAC-1 = biological target: T1, recombinant HDAC-1 (Homo sapiens, UniProt Q13547); test: HDAC biochemical quench assay; conditions: recombinant HDAC-1 purified from HEK 293 cells, 1 uM peptide substrate, 90 min at room temperature
T1 construct: made in house; host or cells: HEK 293 cells
T1 sequence (Q13547 whole entry, species assumed): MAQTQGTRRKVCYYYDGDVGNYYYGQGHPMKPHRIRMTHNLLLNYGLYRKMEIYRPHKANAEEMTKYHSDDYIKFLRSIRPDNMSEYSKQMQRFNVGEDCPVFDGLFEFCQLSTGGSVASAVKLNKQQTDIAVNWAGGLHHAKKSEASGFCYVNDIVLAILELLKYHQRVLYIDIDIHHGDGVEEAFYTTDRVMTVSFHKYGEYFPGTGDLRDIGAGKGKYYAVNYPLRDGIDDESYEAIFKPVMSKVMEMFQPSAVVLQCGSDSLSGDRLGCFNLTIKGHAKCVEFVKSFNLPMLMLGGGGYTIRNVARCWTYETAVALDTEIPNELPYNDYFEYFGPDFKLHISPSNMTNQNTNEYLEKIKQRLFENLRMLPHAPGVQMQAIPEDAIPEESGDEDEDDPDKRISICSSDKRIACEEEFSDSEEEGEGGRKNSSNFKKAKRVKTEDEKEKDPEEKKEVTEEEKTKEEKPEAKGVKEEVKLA
Excerpt: The function of histone deacetylase (HDAC) is the deacetylation of lysines in e.g. histone H4. A peptide of 17 amino acids derived from histone H4 was labeled with TAMRA at the C-terminus and QSY-7 at the N-terminus and was used as a substrate (TAMRA-first17 aa of histone H4-QSY7). Following deacetylation by HDAC, the enzyme Lys C is able to cleave the peptide after lysine. […] Inhibition of HDAC by compounds results in low signals because Lys C could not cleave the substrate and the quench effect persists.
For dose response curves, 10 concentrations were diluted 1:3 starting at 30 uM. 10 ul compound dilution were put into each well of a 384 well plate. 10 ul HDAC were added (recombinant HDAC-1 purified from HEK 293 cells; enzyme activity has to be assessed for each preparation). 10 ul peptide substrate was added (1 uM final concentration, derived from 1 mM stock solution diluted 1:1000 in test buffer). After 90 min incubation at room temperature, the reaction was stopped by addition of 20 ul test buffer including 3 ug/ml Lys C and 0.075% SDS. After overnight incubation the fluorescence signal of TAMRA was measured (Victor 2 from Wallac, absorption 544 nm, emission 590 nm). The O.D. of DMSO-treated control wells is 100%, the % inhibition of compound treated wells is calculated in relation to 100%. Based on 10 concentrations a IC50 curve is generated by using XL.fit3.
Test buffer used: a mixture of 10 mM Hepes pH8, 10 mM NaCl, 10% Glycerol, 0.005% Triton X100, 0.1 mM EDTA, 0.1 mM TCEP. As plates were used 384 well plates (black, Greiner, 781077).

IC50 ([1]; Homo sapiens, 120 h) [nM]	IC50 (recombinant HDAC-1) [nM]	IC50 [1] [nM]	SMILES
190	3.41		Cc1ccc([C@@H](C)NC(=O)c2ccc(C(=O)NO)s2)cc1 [Example 2a, (R)-thiophene-2,5-dicarboxylic acid 2-hydroxyamide 5-[(1-p-tolyl-ethyl)-amide]]
170	4.98		C[C@@H](NC(=O)c1ccc(C(=O)NO)s1)c1ccc(F)cc1 [Example 2b, (R)-thiophene-2,5-dicarboxylic acid 2-{[1-(4-fluoro-phenyl)-ethyl]-amide}5-hydroxyamide]
50	3.44		C[C@@H](NC(=O)c1ccc(C(=O)NO)s1)c1ccc(Cl)cc1 [Example 2c, (R)-thiophene-2,5-dicarboxylic acid 2-{[1-(4-chloro-phenyl)-ethyl]-amide}5-hydroxyamide]
80	3.88		C[C@@H](NC(=O)c1ccc(C(=O)NO)s1)c1ccc(Br)cc1 [Example 2d, (R)-thiophene-2,5-dicarboxylic acid 2-{[1-(4-bromo-phenyl)-ethyl]-amide}5-hydroxyamide]
40	1.73		C[C@@H](NC(=O)c1ccc(C(=O)NO)s1)c1cccc2ccccc12 [Example 2e, (R)-thiophene-2,5-dicarboxylic acid 2-hydroxyamide 5-[(1-naphthalen-1-yl-ethyl)-amide]]
10	4.97		C[C@@H](NC(=O)c1ccc(C(=O)NO)s1)c1ccc2ccccc2c1 [Example 2f, (R)-thiophene-2,5-dicarboxylic acid 2-hydroxyamide 5-[(1-naphthalen-2-yl-ethyl)-amide]]
60	1.18		CC[C@@H](NC(=O)c1ccc(C(=O)NO)s1)c1ccccc1 [Example 2g, (R)-thiophene-2,5-dicarboxylic acid 2-hydroxyamide 5-[(1-phenyl-propyl)-amide]]
70	1.31		COc1cccc([C@@H](C)NC(=O)c2ccc(C(=O)NO)s2)c1 [Example 2h, (R)-thiophene-2,5-dicarboxylic acid 2-hydroxyamide 5-{[1-(3-methoxy-phenyl)-ethyl]-amide}]
50	1.79		COc1ccc([C@@H](C)NC(=O)c2ccc(C(=O)NO)s2)cc1 [Example 2i, (R)-thiophene-2,5-dicarboxylic acid 2-hydroxyamide 5-{[1-(4-methoxy-phenyl)-ethyl]-amide}]
580	3.17		COC[C@H](NC(=O)c1ccc(C(=O)NO)s1)c1ccccc1 [Example 2l, (R)-thiophene-2,5-dicarboxylic acid 2-hydroxyamide 5-[(2-methoxy-1-phenyl-ethyl)-amide]]
300	1.38		O=C(NO)c1ccc(C(=O)N[C@@H]2CCc3ccccc32)s1 [Example 2m, (R)-thiophene-2,5-dicarboxylic acid 2-hydroxyamide 5-indan-1-ylamide]
350	2.86		O=C(NO)c1ccc(C(=O)N[C@@H]2CCCc3ccccc32)s1 [Example 2n, (R)-thiophene-2,5-dicarboxylic acid 2-hydroxyamide 5-[(1,2,3,4-tetrahydro-naphthalen-1-yl)-amide]]
		840	C[C@H](NC(=O)c1ccc(C(=O)NO)s1)c1ccccc1 [Example 4a, (S)-thiophene-2,5-dicarboxylic acid 2-hydroxyamide 5-[(1-phenyl-ethyl)-amide]]
		840	C[C@H](NC(=O)c1ccc(C(=O)NO)s1)c1ccc(Cl)cc1 [Example 4c, (S)-thiophene-2,5-dicarboxylic acid 2-{[1-(4-chloro-phenyl)-ethyl]-amide}5-hydroxyamide]
		880	C[C@H](NC(=O)c1ccc(C(=O)NO)s1)c1ccc(Br)cc1 [Example 4d, (S)-thiophene-2,5-dicarboxylic acid 2-{[1-(4-bromo-phenyl)-ethyl]-amide}5-hydroxyamide]
		920	C[C@H](NC(=O)c1ccc(C(=O)NO)s1)c1ccc2ccccc2c1 [Example 4f, (S)-thiophene-2,5-dicarboxylic acid 2-hydroxyamide 5-[(1-naphthalen-2-yl-ethyl)-amide]]
780	3.19		CC[C@H](NC(=O)c1ccc(C(=O)NO)s1)c1ccccc1 [Example 4g, (S)-thiophene-2,5-dicarboxylic acid 2-hydroxyamide 5-[(1-phenyl-propyl)-amide]]
	1.79		COc1cccc([C@H](C)NC(=O)c2ccc(C(=O)NO)s2)c1 [Example 4h, (S)-thiophene-2,5-dicarboxylic acid 2-hydroxyamide 5-{[1-(3-methoxy-phenyl)-ethyl]-amide}]
560	2.6		COc1ccc([C@H](C)NC(=O)c2ccc(C(=O)NO)s2)cc1 [Example 4i, (S)-thiophene-2,5-dicarboxylic acid 2-hydroxyamide 5-{[1-(4-methoxy-phenyl)-ethyl]-amide}]
160	4.04		COC[C@@H](NC(=O)c1ccc(C(=O)NO)s1)c1ccccc1 [Example 4l, (S)-thiophene-2,5-dicarboxylic acid 2-hydroxyamide 5-[(2-methoxy-1-phenyl-ethyl)-amide]]
	2.97		O=C(NO)c1ccc(C(=O)N[C@H]2CCc3ccccc32)s1 [Example 4m, (S)-thiophene-2,5-dicarboxylic acid 2-hydroxyamide 5-indan-1-ylamide]
770	0.8		O=C(NO)c1ccc(C(=O)N[C@H]2CCCc3ccccc32)s1 [Example 4n, (S)-thiophene-2,5-dicarboxylic acid 2-hydroxyamide 5-[(1,2,3,4-tetrahydro-naphthalen-1-yl)-amide]]
60	1.66		C[C@@H](NC(=O)c1ccc(C(=O)NO)s1)c1cccs1 [Example 7, (R)-Thiophene-2,5-dicarboxylic Acid 2-hydroxyamide 5-[(1-thiophen-2-yl-ethyl)-amide]]
630	4.27		O=C(NO)c1ccc(C(=O)N[C@@H](CN2CCOCC2)c2ccccc2)s1 [Example 8c, (R)-thiophene-2,5-dicarboxylic acid 2-hydroxyamide 5-[(2-morpholin-4-yl-1-phenyl-ethyl)-amide]]
30	1.26		C[C@@H](NC(=O)c1ccc(C(=O)NO)s1)c1ccc(C(F)(F)F)cc1 [Example 8d, (R)-thiophene-2,5-dicarboxylic acid 2-hydroxyamide 5-{[1-(4-trifluoromethyl-phenyl)-ethyl]-amide}]
10	1.08		C[C@@H](NC(=O)c1ccc(C(=O)NO)s1)c1ccc(C(C)(C)C)cc1 [Example 8e, (R)-thiophene-2,5-dicarboxylic acid 2-{[1-(4-tert-butyl-phenyl)-ethyl]-amide}5-hydroxyamide]
40	1.33		O=C(NO)c1ccc(C(=O)N[C@H](Cc2ccccc2)c2ccccc2)s1 [Example 8f, (R)-thiophene-2,5-dicarboxylic acid 2-[(1,2-diphenyl-ethyl)-amide]5-hydroxyamide]
520	3.82		C[C@H](NC(=O)c1ccc(C(=O)NO)s1)c1cccs1 [Example 9, (S)-Thiophene-2,5-dicarboxylic Acid 2-hydroxyamide 5-[(1-thiophen-2-yl-ethyl)-amide]]
	1.94		O=C(NO)c1ccc(C(=O)N[C@H](CN2CCOCC2)c2ccccc2)s1 [Example 10c, (S)-thiophene-2,5-dicarboxylic acid 2-hydroxyamide 5-[(2-morpholin-4-yl-1-phenyl-ethyl)-amide]]
